SMILES strings stand for the structures.

One data set concerns the target ASK1 kinase (Homo sapiens (Human), UniProt Q99683). The data set is described as follows: ASK1 enzymatic test (TR-FRET). It counts as biochemical. To be noted: ASK1 kinase activity. How it is done: In this test, the fluorescence-resonance energy transfer (TR-FRET) method was used to determine the inhibition effect of the test compounds on ASK1 kinase activity, and the half maximal inhibitory concentration IC50 of the compounds on ASK1 kinase activity was obtained.
1) 1˜5 μL of ASK1 enzyme solution was added to a 384-well plate, and the final concentration of the enzyme was 0.220 nM.
2) 1˜5 μL of gradient-diluted compound solution was added.
3) 1˜5 μL of a substrate mixture containing substrate polypeptides (final concentration: 100˜5000 nM) and ATP (final concentration: 100˜1000 uM) were added.
4) The mixture was incubated at room temperature for 0.5 to 5 hours.
5) 10 μL of EDTA and test solution containing labeled antibody were added, and the plate was incubated at room temperature for 2 to 24 hours.
6) The fluorescence signal value of each well was determined by a microplate reader at about 615 nm and 665 nm.
7) The inhibition rate was calculated by the fluorescence signal value.
8) The IC50 of the compound was obtained by curve fitting according to the inhibition rate at different concentrations.
(In general: TR-FRET usually uses a lanthanide donor and a delayed reading to cut background.)

The test system of data set [1] is non-alcoholic steatohepatitis mice induced by HFD (high fat diet)+CCl4. The data set is described as follows: Effect on serum ALT and AST levels of non-alcoholic steatohepatitis mice induced by HFD+CCl4. The conditions noted are these: oral once a day for 28 days, versus solvent control group. It counts as in vivo, C57BL/6 mice. Also noted: concentration or dose not given beside the values. An excerpt:
3. The effect of the compounds of the present invention on the ALT and AST levels of non-alcoholic steatohepatitis mice induced by HFD (high fat diet)+CCl4
The object of this test example is to determine whether the compounds of the present invention can down-regulate the ALT and AST levels in the serum of non-alcoholic steatohepatitis mice or not.
C57BL/6 mice were adaptively fed in a SPF (specific pathogen free) barrier for 3 to 7 days, and then fed with HFD feed with a feeding cycle of 8 weeks. At the fifth week of HFD feeding, the HFD-induced mice were randomly grouped according to body weight, and orally administrated with CCl4 twice a week for 4 weeks. At the day of modeling with CCl4, the test compounds were orally administrated once a day continuously for 28 days. The solvent control group was administrated with the corresponding solvent of the test compounds with an administration volume of 10 mL/kg. The mice were euthanized with CO2 48 hours after the last administration of CCl4, and the non-anticoagulated venous blood was collected from the heart. The whole blood was left to stand at room temperature for at least 30 minutes, and then centrifuged for 5 minutes at 4° C. at 5000 rpm to separate the serum. The serum was dispensed into two portions in 1.5 mL EP tubes, and stored at −80° C. for later use.
The ALT and AST levels in mice serum were determined using the alanine aminotransfease (ALT/GPT) kit and aspartate aminotransferase (AST/GOT) kit. The ALT (or AST) test substrate solution was preheated in a 37° C. incubator; 20 μL of substrate solution were pipetted into a 96-well plate, and 5 μL of serum were pipetted into the 96-well plate as test well. After mixing well, the plate was sealed using a sealing film, and placed into the 37° C. incubator to incubate for 30 min. The ALT (or AST) standard curve was formulated, and 25 μL of which were pipetted into the 96-well plate; 20 μL of […] were pipetted into the 96-well plate as control well; 20 μL of 2,4-dinitrophenylhydrazine solution were added to each well. After mixing well, the plate was sealed using a sealing film, and placed into the 37° C. incubator to incubate for 20 min. 200 μL of 0.4 M NaOH solution were added to each well. The plate was placed on a shaker to shake for 15 min, and then measured on the BioTek Synergy H1 instrument using OD detection program at a wavelength of 510 nm. The absolute OD value was calculated from the OD value of each well. Absolute OD value=OD value of measured well−OD value of control well. The absolute OD value was taken into the standard curve to obtain the ALT (or AST) content of the sample. Samples that exceed the standard curve range should be re-tested after diluting the serum to an appropriate concentration. Data processing: (% ALT reduction rate)=(solvent control group−test compound)/solvent control group×100%; (% AST reduction rate)=(solvent control group−test compound)/solvent control group×100%.

A short description of data set [2]: Pharmacokinetic (PK) assay in mice. It counts as in vivo. The conditions noted are these: Balb/c male mice, single intragastric administration, 5 mg/kg, plasma; for AUC(0-t) / AUC(0-inf) / half-life / MRT / Cmax: mouse, po; for AUC(0-t): read-out: Area under curve AUC0-t; for AUC(0-inf): read-out: Area under curve AUC0-∞; for half-life: read-out: Half-life t1/2 (converted); for MRT: read-out: Mean residence time MRT; for Cmax: read-out: Plasma concentration Cmax. As to the method: 2. Pharmacokinetic (PK) Assay in Mice
The pharmacokinetic test of the preferred examples of the present invention in mice was carried out in Balb/c male mice (Shanghai Jiesijie Laboratory Animal Co., LTD).
Administration mode: single intragastric administration.
Administration dosage: 5 mg/10 ml/kg.
Formulation: 0.5% CMC-Na, ultrasonic dissolution.
Sampling points: 0.5, 1, 2, 4, 6, 8 and 24 hours after administration.
1) 0.1 mL of blood was taken from the orbit, placed in a K2EDTA tube, and centrifuged for 5˜20 min at room temperature at 1000˜3000×g to separate the plasma, which was then stored at −80° C.
2) 160 μL of acetonitrile was added to 40 μL of plasma sample for precipitation, and then the mixture was centrifuged for 5˜20 minutes at 500˜2000×g.
3) 100 μL, of processed supernatant was taken and analyzed by LC/MS/MS assay to determine the concentration of the test compound.
LC-MS/MS Assay: • Liquid chromatography condition: Shimadzu LC-20AD pump • Mass spectrometry condition: AB Sciex API 4000 mass spectrometer • Chromatographic column: phenomenex Gemiu 5 μm C18 50×4.6 mm • Mobile phase: solution A was 0.1% aqueous formic acid solution, and solution B was acetonitrile • Flow rate: 0.8 mL/min • Elution time: 0-3.5 minutes gradient elution
The main parameters were calculated using WinNonlin 6.1.

ASK1 kinase, sequence (Q99683 whole entry): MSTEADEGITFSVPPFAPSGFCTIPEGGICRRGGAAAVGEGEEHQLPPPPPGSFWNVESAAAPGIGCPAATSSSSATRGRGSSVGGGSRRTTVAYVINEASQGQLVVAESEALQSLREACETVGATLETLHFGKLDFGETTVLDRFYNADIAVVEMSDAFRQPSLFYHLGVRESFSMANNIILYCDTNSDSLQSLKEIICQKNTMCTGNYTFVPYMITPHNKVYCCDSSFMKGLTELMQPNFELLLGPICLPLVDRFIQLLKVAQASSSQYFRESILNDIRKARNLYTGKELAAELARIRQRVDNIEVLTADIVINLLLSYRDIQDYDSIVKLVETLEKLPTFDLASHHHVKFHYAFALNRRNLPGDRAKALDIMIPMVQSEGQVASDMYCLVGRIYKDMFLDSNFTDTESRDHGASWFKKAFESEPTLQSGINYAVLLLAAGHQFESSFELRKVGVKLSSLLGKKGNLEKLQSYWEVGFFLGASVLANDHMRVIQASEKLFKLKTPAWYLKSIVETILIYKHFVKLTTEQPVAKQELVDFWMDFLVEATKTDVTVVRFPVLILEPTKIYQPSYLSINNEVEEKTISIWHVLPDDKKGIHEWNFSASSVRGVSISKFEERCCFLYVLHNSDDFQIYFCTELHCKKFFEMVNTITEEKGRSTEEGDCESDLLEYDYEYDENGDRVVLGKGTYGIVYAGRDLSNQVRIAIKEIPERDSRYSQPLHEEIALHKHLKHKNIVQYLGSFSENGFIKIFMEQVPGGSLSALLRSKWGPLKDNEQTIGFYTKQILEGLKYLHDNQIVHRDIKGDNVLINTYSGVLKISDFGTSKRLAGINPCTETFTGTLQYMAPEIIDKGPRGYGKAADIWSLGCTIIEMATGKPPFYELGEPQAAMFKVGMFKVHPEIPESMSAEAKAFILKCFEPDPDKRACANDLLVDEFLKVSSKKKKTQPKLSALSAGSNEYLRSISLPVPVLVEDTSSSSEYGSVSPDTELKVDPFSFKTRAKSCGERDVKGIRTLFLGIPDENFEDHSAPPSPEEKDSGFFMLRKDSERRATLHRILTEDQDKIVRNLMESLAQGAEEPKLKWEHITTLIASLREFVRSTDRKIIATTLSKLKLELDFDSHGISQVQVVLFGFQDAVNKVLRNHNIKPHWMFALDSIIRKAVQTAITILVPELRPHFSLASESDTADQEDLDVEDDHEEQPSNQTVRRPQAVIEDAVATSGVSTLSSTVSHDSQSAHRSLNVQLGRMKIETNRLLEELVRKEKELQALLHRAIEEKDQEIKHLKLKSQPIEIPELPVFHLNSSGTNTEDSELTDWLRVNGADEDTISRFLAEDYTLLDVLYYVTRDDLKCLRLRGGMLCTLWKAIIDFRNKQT

As usually defined, the IC50 is the concentration that gives 50% inhibition. Usually MRT stands for a mean duration of stay, worked out from the concentration-time curve. For the compound `Cc1cc(F)c(C(=O)Nc2cccc(-c3nnc4n3C(C)(C)CC4)n2)cc1-n1cnc(C2CC2)c1` [Example 10, 5-(4-Cyclopropyl-1H-imidazol-1-yl)-N-(6-(5,5-dimethyl-6,7-dihydro-5H-pyrrolo[2,1-c][1,2,4]triazol-3-yl)pyridin-2-yl)-2-fluoro-4-methylbenzamide], half-maximal inhibition on ASK1 kinase (IC50) required 1 nM. Moreover, in data set [1], the “ALT(U/L) reduction rate (%)” value was determined as 50% and the “AST(U/L) reduction rate (%)” value was found to be 46%. In addition, in data set [2], the Peak time tmax came to 0.5 h, the AUC(0-t) was 32400 ng·h/mL, the AUC(0-inf) was determined as 32400 ng·h/mL and the half-life was 1.6 h. In addition, in data set [2], the MRT amounted to 3 h and the Cmax was 8990 ng/mL.
In the case of `Cc1cc(F)c(C(=O)Nc2cccc(-c3nnc4n3[C@H](C)CC4)n2)cc1-n1cnc(C(C)(C)C)c1` [Example 15, (R)-5-(4-(tert-Butyl)-1H-imidazol-1-yl)-2-fluoro-4-methyl-N-(6-(5-methyl-6,7-dihydro-5H-pyrrolo[2,1-c][1,2,4]triazol-3-yl)pyridin-2-yl)benzamide], on ASK1 kinase, the IC50 was 1.4 nM. Also, in data set [1], the “ALT(U/L) reduction rate (%)” value is recorded as 54% and the “AST(U/L) reduction rate (%)” value was 58%.
Compound `C=C[C@@H]1CCc2nnc(-c3cccc(NC(=O)c4cc(-n5cnc(C6CC6)c5)c(C)cc4F)n3)n21` [Example 37, (S)-5-(4-Cyclopropyl-1H-imidazol-1-yl)-2-fluoro-4-methyl-N-(6-(5-vinyl-6,7-dihydro-5H-pyrrolo[2,1-c][1,2,4]triazol-3-yl)pyridin-2-yl)benzamide] had an IC50 against ASK1 kinase of 3.5 nM. In addition, in data set [1], the “ALT(U/L) reduction rate (%)” value is reported as 57% and the “AST(U/L) reduction rate (%)” value amounted to 62%. In data set [2], the Peak time tmax is 0.5 h, the AUC(0-t) was 43900 ng·h/mL, the AUC(0-inf) was 48000 ng·h/mL and the half-life is 2.1 h. Also, in data set [2], the MRT was determined as 3.4 h and the Cmax was determined as 11700 ng/mL.
The compound `Cc1cc(F)c(C(=O)Nc2cccc(-c3nnc4n3[C@H](C(F)(F)F)CC4)n2)cc1-n1cnc(C2CC2)c1` [Example 40, (S)-5-(4-Cyclopropyl-1H-imidazol-1-yl)-2-fluoro-4-methyl-N-(6-(5-(trifluoromethyl)-6,7-dihydro-5H-pyrrolo[2,1-c][1,2,4]triazol-3-yl)pyridin-2-yl)benzamide] returned an IC50 on ASK1 kinase of 1.9 nM. In data set [1], the “ALT(U/L) reduction rate (%)” value is on record as 50% and the “AST(U/L) reduction rate (%)” value turned out to be 65%. Also, in data set [2], the Peak time tmax amounted to 0.5 h, the AUC(0-t) was 26800 ng·h/mL, the AUC(0-inf) was found to be 28300 ng·h/mL and the half-life is 1.7 h. Also, in data set [2], the MRT was 2.7 h and the Cmax worked out at 10700 ng/mL.
`C#C[C@@H]1CCc2nnc(-c3cccc(NC(=O)c4cc(-n5cnc(C6CC6)c5)c(C)cc4F)n3)n21` [Example 43, (S)-5-(4-Cyclopropyl-1H-imidazol-1-yl)-N-(6-(5-ethynyl-6,7-dihydro-5H-pyrrolo[2,1-c][1,2,4]triazol-3-yl)pyridin-2-yl)-2-fluoro-4-methylbenzamide] yielded an IC50 against ASK1 kinase of 1.9 nM. Moreover, in data set [1], the “ALT(U/L) reduction rate (%)” value was 65% and the “AST(U/L) reduction rate (%)” value amounted to 58%. Moreover, in data set [2], the Peak time tmax came out at 0.5 h, the AUC(0-t) came out at 80900 ng·h/mL, the AUC(0-inf) was found to be 81900 ng·h/mL and the half-life is 3.9 h. Besides, in data set [2], the MRT turned out to be 5.3 h and the Cmax turned out to be 12200 ng/mL.
As for `CC[C@@H]1CCc2nnc(-c3cccc(NC(=O)c4cc(-n5cnc(C6CC6)c5)c(C)cc4F)n3)n21` [Example 55, (R)-5-(4-Cyclopropyl-1H-imidazol-1-yl)-N-(6-(5-ethyl-6,7-dihydro-5H-pyrrolo[2,1-c][1,2,4]triazol-3-yl)pyridin-2-yl)-2-fluoro-4-methylbenzamide], the midpoint of inhibition against ASK1 kinase, the IC50, lay at 1.9 nM. For the same compound, in data set [1], the “ALT(U/L) reduction rate (%)” value is 56% and the “AST(U/L) reduction rate (%)” value stood at 55%. Also, in data set [2], the Peak time tmax was found to be 0.5 h, the AUC(0-t) was 31500 ng·h/mL, the AUC(0-inf) is 31500 ng·h/mL and the half-life is 1.4 h. In data set [2], the mean residence time MRT was 2.9 h and the Cmax turned out to be 9330 ng/mL.
`Cc1cc(F)c(C(=O)Nc2cccc(-c3nnc4n3C3(CC4)CC3)n2)cc1-n1cnc(C2CC2)c1` [Example 61, 5-(4-Cyclopropyl-1H-imidazol-1-yl)-N-(6-(6′,7′-dihydrospiro[cyclopropane-1,5′-pyrrolo[2,1-c][1,2,4]triazol]-3′-yl)pyridin-2-yl)-2-fluoro-4-methylbenzamide] came in with a 50% inhibitory concentration (IC50) on ASK1 kinase of 1.9 nM. Besides, in data set [1], the “ALT(U/L) reduction rate (%)” value amounted to 50% and the “AST(U/L) reduction rate (%)” value is 54%. Further, in data set [2], the Peak time tmax came out at 1 h, the AUC(0-t) stood at 68600 ng·h/mL, the AUC(0-inf) was 68800 ng·h/mL and the half-life was 2.7 h. Besides, in data set [2], the MRT was found to be 4.5 h and the Cmax worked out at 11400 ng/mL.
For the compound `Cc1cc2c(cc1-n1cnc(C3CC3)c1)C(=O)N(c1cccc(-c3nnc4n3C3(CC4)CC3)n1)C2` [Example 64, 6-(4-Cyclopropyl-1H-imidazol-1-yl)-2-(6-(6′,7′-dihydrospiro[cyclopropane-1,5′-pyrrolo[2,1-c][1,2,4]triazol]-3′-yl)pyridin-2-yl)-5-methylisoindolin-1-one], half-maximal inhibition against ASK1 kinase (IC50) was put at 5.5 nM. In data set [1], the “ALT(U/L) reduction rate (%)” value was 51% and the “AST(U/L) reduction rate (%)” value came to 47%.
`Cc1cc2c(cc1-n1cnc(C3CC3)c1)C(=O)N(c1cccc(-c3nnc4n3[C@H](C(F)(F)F)CC4)n1)C2` [Example 65, (S)-6-(4-Cyclopropyl-1H-imidazol-1-yl)-5-methyl-2-(6-(5-(trifluoromethyl)-6,7-dihydro-5H-pyrrolo[2,1-c][1,2,4]triazol-3-yl)pyridin-2-yl)isoindolin-1-one]: the IC50 against ASK1 kinase stood at 9.4 nM. For the same compound, in data set [1], the “ALT(U/L) reduction rate (%)” value is reported as 46% and the “AST(U/L) reduction rate (%)” value was determined as 52%.
Consider `Cc1cc(F)c(C(=O)Nc2cccc(-c3nncn3C(C)C)n2)cc1-n1cnc(C2CC2)c1` [GS-4997, reference compound], for which, in data set [1], the “ALT(U/L) reduction rate (%)” value is listed as 40% and the “AST(U/L) reduction rate (%)” value was 35%.

These data come from patent US11136324B2, “Substituted imidazoles as apoptosis signal regulating kinase 1 inhibitors” (Jiangsu Hansoh Pharmaceutical Group Co., Ltd., priority 2017, dated 2021).
